What all share (assay type): in vivo, C57BL/6 mice
The subject of one test is splenocytes. Put plainly: IFN-γ EliSpot cross-reactivity between wt and htcPep after immunization. Conditions: mice immunized with NAL peptide, splenocytes re-stimulated with the labelled peptide. The protocol: C57BL/6 mice were immunized with the different htcPep. In particular, each group of animals (6 for each group) were injected by sub-cutaneous (s.c.) route with 100 µg of WT, INC (mix of selected htcPep), NAL or MIX peptides (peptide library) respectively, emulsified with 50 μg of Polyinosinic:polycytidylic acid [poly(I:C); InvivoGen] adjuvant formulated in PBS (200ul total volume). Each group received weekly the peptide vaccine in combination with metronomic chemotherapy (MCT) and ICI. One group was treated only with MCT and ICI (MCT + ICI group). Control mice were treated with endotoxin-free phosphate-buffered saline (PBS). Splenocytes were re-stimulated ex-vivo O/N with the different peptides in an IFN-γ EliSpot assay.
ELISPOT was performed according to BD Biosciences manufacturer instructions (BD ELISPOT Mouse IFN-γ ELISPOT Set cod. 551083). 5x10^5 splenocytes or 2 x10^5 tumor infiltrated lymphocytes (TIL) were counted and plated in each well. […]
Both splenocytes and TILs were stimulated with 10ug/ml of single or peptide pool used for the immunization and incubated for 24-26h. […] The plates were read with an AID EliSpot Reader Systems (AID GmbH, Strassberg, Germany). The results were calculated as spot forming counts as a mean of a duplicate count from the specific antigen stimulation minus the negative control.

In test [1] the test system is B16F10 tumors. The test can be described thus: Tumor necrosis rate (H&E) in B16F10 tumors. The following applies: H&E staining. The protocol:
Finally, tumor necrosis rates were evaluated for each tumor lesion. The slides were stained with hematoxylin and eosin and then subjected to reading and determination of areas of necrosis. For percentage of necrosis through the tumor mass, was used the following formula: …
%necrosis area: (necrosis area/total tumoral mass area)∗100

Test [2] has as its system B16F10 tumors. The test can be described thus: IHC of tumor-infiltrating lymphocytes in B16F10 tumors. Conditions: B16F10 tumors at sacrifice, Trp2 groups, Central Tumor. The text has this: Formalin-Fixed Paraffin-Embedded (FFPE) sections were stained with CD3+, FoxP3 and Granzime B antibodies manually. Visualization of the antibody–antigen reaction was visualized by anti-alkaline phosphatase methods using Vulcan fast red (Biocare Medical FR805S) as the chromogenic substrate. Finally, sections were weakly counterstained with hematoxylin and mounted.
Lymphocyte densities (cells/mm2) were quantified in the tumor (CT) and invasive margin (IM) by digital pathology. The slides were scanned with Aperio AT2 (Leica) and the areas (CT, IM) were selected by an experienced pathologist (MDB). Finally, the acquired images were quantified using QuPath 0.2.3.
To evaluate the balance between cytotoxic and immune suppressive activity of B16 tumor model a formula considering the numerical difference between the GrzB+ cells (cytotoxic cells) and the FOXP3+ cells (immunosuppressive cells), on total CD3+ cells, was applied. The formula is schematized as:
Ratio=(# of GRZB−# of FOXP3)/# of CD3.

The values that follow come from PMC8564487, “MHC-Optimized Peptide Scaffold for Improved Antigen Presentation and Anti-Tumor Response” (Frontiers in Immunology, 2021).

For the substance “D4W: heteroclitic Trp2 peptide with Tryptophan substitution at position 4 (SVYWFFVWL; UniProt P29812 180-188, looked up, variant D183W)”, in the test on splenocytes (Trp2 series), the “T cell cross-reactivity of NAL-immunized animals with challenging htcPep” value is “strongest T cells cross-reactivity”.
For the substance “Trp2 wt: wild type Trp2 H-2Db epitope expressed by B16F10 melanoma cells (SVYDFFVWL; Trp2 H-2Db epitope; UniProt P29812 180-188, looked up, fragment)”, the “% of necrosis (necrosis area/total tumoral mass area)” value in the test with B16F10 tumors [1] was determined as 10%. In addition, the “Average number of FOXP3+ T cells, CT area” value in the test on B16F10 tumors [2] stood at 2.8.
For “Y4W: heteroclitic E7 peptide with Tryptophan substitution at position 4 (RAHWNIVTF; UniProt P03129 49-57, looked up, variant Y52W)”, the “T cell cross-reactivity of NAL-immunized animals with challenging htcPep” value in the test with splenocytes (HPV-E7 series) is “strongest T cells cross-reactivity”.
